Patent publication US5064947A (priority 1990, dated 1991)
Read-outs that look alike come from different tables or passages of the source.

Experiments:
[1] = system: A-2 receptors; settings: cited from earlier work
[2] = target: T1, adenosine A-2 receptors (Rattus norvegicus, UniProt P30543); test: Affinity for brain adenosine A-2 receptors ([3H]NECA displacement, rat brain striatum membranes); format: binding
T1 construct: from tissue; host or cells: striatal membranes of young male rats (C-D strain, from Charles River)
T1 sequence (P30543 whole entry): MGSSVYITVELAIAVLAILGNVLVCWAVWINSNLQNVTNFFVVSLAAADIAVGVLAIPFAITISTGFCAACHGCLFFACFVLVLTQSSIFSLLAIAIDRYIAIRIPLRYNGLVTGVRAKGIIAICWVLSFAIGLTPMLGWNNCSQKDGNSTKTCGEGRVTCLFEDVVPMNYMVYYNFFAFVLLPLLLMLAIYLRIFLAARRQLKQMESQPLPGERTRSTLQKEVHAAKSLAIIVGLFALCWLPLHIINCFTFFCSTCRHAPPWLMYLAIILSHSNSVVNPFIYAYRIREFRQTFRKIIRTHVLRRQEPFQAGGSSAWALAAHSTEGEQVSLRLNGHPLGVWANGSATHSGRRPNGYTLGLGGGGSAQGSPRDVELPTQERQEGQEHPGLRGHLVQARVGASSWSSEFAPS
Experimental: The pellet is finally resuspended in 40 vol. of 50mM Tris-HCl (pH 7.7) per gram of original wet weight of tissue.
Incubations are carried out at 25° C. for 60 minutes. Each tube is filtered through GF/B glass fiber filters using a vacuum. The filters are rinsed two times with 5 ml of the ice-cold buffer. […] The filters are counted by liquid scintillation spectrometry.
Specific binding of [3H]NECA is measured as the excess over blanks run in the presence of 100 μM 2-chloroadenosine. […] Specific binding to membranes is about 50% of the total bound.

[3] = system: A-1 receptors; settings: cited from earlier work
[4] = in vivo; cited from earlier work
[5] = target: T2, Adenosine A-1 receptor (Rattus norvegicus, UniProt P25099)
T2 sequence (P25099 1-326): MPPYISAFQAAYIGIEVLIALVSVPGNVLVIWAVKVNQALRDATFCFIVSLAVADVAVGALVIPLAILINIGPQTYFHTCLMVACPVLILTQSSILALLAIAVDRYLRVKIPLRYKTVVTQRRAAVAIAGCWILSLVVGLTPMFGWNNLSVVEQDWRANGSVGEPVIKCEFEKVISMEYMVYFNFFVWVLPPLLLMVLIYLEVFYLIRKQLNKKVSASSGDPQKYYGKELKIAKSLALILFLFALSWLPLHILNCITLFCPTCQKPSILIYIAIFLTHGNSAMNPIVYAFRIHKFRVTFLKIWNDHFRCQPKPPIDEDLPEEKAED

[6] = ratio of A-2 Ki to A-1 Ki (selectivity)

CCNC(=O)[C@H]1O[C@@H](n2cnc3c(N)ncnc32)[C@H](O)[C@@H]1O [NECA, N-5'-ethylcarboxamidoadenosine]
order of potency at A-2 receptors [1]: NECA>2-chloroadenosine>R-PIA>CHA

C1=Nc2c(ncn2-c2ccccc2)C2=N[C@H](Cc3ccccc3)CN12 [Compound 6, (R)-7,8-dihydro-3-phenyl-8-(phenylmethyl)-3H-diimidazo[1,2-c:4',5'-e]pyrimidine]
A-2 Ki/A-1 Ki [2]: 16.40

CCCn1c(=O)c2[nH]c(-c3ccc(OCC(=O)O)cc3)nc2n(CCC)c1=O [XCC, carboxylic acid congener of 8-phenyl-1,3-dipropyl-xanthine]
adenosine receptor selectivity ([3]; A-1 vs A-2, in vitro): non-selective

CCCn1c(=O)c2[nH]c(-c3ccc(OCC(=O)NCCN)cc3)nc2n(CCC)c1=O [XAC, amino congener of 8-phenyl-1,3-dipropyl-xanthine]
higher affinity for A-1 adenosine receptors vs A-2 ([3]; A-1 brain membranes versus A-2 brain slice assay): 40 fold
antagonizing the effects of adenosine analogs on heart rate versus blood pressure [4]: much more potent in antagonizing the effects of adenosine analogs on heart rate than on blood pressure

CCCOC1=Nc2c(cnn2-c2ccccc2)C2=N[C@H](C)[C@@H](c3ccccc3)N12 [Compound 7, (2R-trans)-2,7-dihydro-2-methyl-3,7-diphenyl-5-propoxy-3H-Imidazo[1,2-c]pyrazolo[4,3-e]pyrimidine]
A-2 Ki/A-1 Ki [2, 6]: 1.17

C1=Nc2c(cnn2-c2ccccc2)C2=N[C@H](Cc3ccccc3)CN12 [Compound 3, (R)-2,7-dihydro-7-phenyl-2-(phenylmethyl)-3H-imidazo[1,2-c]pyrazolo[4,3-e]pyrimidine]
A-2 Ki/A-1 Ki [2, 6]: 13.20

OC[C@H]1O[C@@H](n2cnc3c2N=CN2C[C@H](Cc4ccccc4)N=C32)[C@H](O)[C@@H]1O [Compound 13, (S)-7,8-dihydro-3-(β-D-ribofuranosyl)-8-(phenylmethyl)-3H-diimidazo[1,2-c:4',5'-e]pyrimidine]
A-2 Ki/A-1 Ki [2]: 1.70

CCCOC1=Nc2c(ncn2-c2ccccc2)C2=N[C@@H](Cc3ccccc3)CN12 [Compound 12, (S)-7,8-dihydro-3-phenyl-8-(phenylmethyl)-5-propoxy-3H-diimidazo[1,2-c:4',5'-e]pyrimidine]
Ki [5]: 9 µM
Ki ([2]; [3H]NECA, rat brain striatum membranes, 25° C., 60 minutes, read-out: A-2 Receptor Ki): 1.6 µM
A-2 Ki/A-1 Ki [2, 6]: 0.18

Nc1nc(Cl)nc2c1ncn2[C@@H]1O[C@H](CO)[C@@H](O)[C@H]1O [2-chloroadenosine]
order of potency at A-2 receptors [1]: NECA>2-chloroadenosine>R-PIA>CHA

CCCOC1=Nc2c(cnn2-c2ccccc2)C2=N[C@@H](Cc3ccccc3)CN12 [Compound 2, (S)-2,7-dihydro-7-phenyl-2-(phenylmethyl)-5-propoxy-3H-imidazo[1,2-c]pyrazolo[4,3-e]pyrimidine]
A-2 Ki/A-1 Ki [2, 6]: 0.18

OC[C@H]1O[C@@H](n2cnc3c2N=CN2C[C@@H](Cc4ccccc4)N=C32)[C@H](O)[C@@H]1O [Compound 14, (R)-7,8-dihydro-3-(β-D-ribofuranosyl)-8-(phenylmethyl)-3H-diimidazo[1,2-c:4',5'-e]pyrimidine]
A-2 Ki/A-1 Ki [2]: 5.50
